Results published in patent publication US7459522B2 (Affymax, Inc., priority 1999, dated 2008).
Bridge positions count the residues as written; N and C are the ends. Square brackets hold non-standard residues; d marks the D form. Ends that are not written are not given here. I, II: the chains in the order shown. 1Nal = N[C@@H](Cc1cccc2ccccc12)C(=O)O; βAla = NCCC(=O)O

How the values were obtained:
EPO receptor = conditions: single class of binding sites, 300 to 600 per cell surface; cited from earlier work
huEPOR = molecular target: T1, huEPOR (Homo sapiens, UniProt P19235); assay: Ba/F3-huEPOR cell proliferation assay; type: cell-based; conditions: for EC50: concentration required to produce 50% of the maximal activity obtained with recombinant erythropoietin
T1 construct: expressed in transfected cells; host or cells: Ba/F3 (murine pro-B line, own knowledge) carrying huEPOR
T1 sequence (P19235 25-508): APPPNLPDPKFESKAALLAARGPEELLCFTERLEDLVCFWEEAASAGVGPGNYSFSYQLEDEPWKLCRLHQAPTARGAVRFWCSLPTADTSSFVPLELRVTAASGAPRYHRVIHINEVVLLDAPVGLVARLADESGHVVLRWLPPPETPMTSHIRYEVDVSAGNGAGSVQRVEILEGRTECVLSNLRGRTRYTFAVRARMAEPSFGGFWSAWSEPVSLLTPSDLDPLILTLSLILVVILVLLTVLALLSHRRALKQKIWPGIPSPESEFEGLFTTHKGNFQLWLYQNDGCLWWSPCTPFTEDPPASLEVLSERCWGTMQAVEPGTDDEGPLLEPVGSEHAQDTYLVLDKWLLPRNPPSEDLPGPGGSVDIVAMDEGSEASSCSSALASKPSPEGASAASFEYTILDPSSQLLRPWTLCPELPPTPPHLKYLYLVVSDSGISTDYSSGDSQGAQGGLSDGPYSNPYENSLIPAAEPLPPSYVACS
Description: The protocol for each assay is described in Wrighton et al. (1997) Nature Biotechnology 15:1261-1265, and in U.S. Pat. Nos. 5,773,569 and 5,830,851, both to Wrighton et al. and cited earlier herein.

EC50 (huEPOR) | Substance | other results
 | Erythropoietin [EPO] | Kd (EPO receptor): ~0.8 nM
6 nM | I: GGTYSCHFGPLT[1Nal]VCRPQGGK-NH2 / II: GGTYSCHFGPLT[1Nal]VCRPQGG (amide I:21-II:C; cysteines drawn unpaired) [Example 1] | 
 | I: GGTYSCHFGPLT[1Nal]VCRPQGGK-NH2 / II: GGTYSCHFGPLT[1Nal]VCRPQGG (disulfide I:6-I:15, II:6-II:15; amide I:21-II:C) [Example 6] | in vitro bioactivity (huEPOR; FIG. 5, Isomer 1 compared with Isomer 2, Isomer 3 and the other compounds): noticeably higher
5 nM | I: GGTYSCHFGPLT[1Nal]VCRPQGG[βAla]K-NH2 / II: GGTYSCHFGPLT[1Nal]VCRPQGG[βAla] (amide I:22-II:C; cysteines drawn unpaired) [Example 3] | 
